Measured values as given in US20240180855A1, “BIOACTIVE PRODUCTS” (priority 2021, published 2024).
“And” between values parts separate entries of the source, which are not always exact repeats. Equal entries are not always repeated. Where two headings read alike, the source gives them in different places.

What was measured:
wheat [1] = assay: Wheat growth after seed treatment with reverse transcription, integration and protease inhibitors (Example 4); type: in vivo; details: seeds treated 1 hour at 37° C.; cultivation 23° C.
wheat [2] = assay: Wheat growth after seed treatment with complexes of inhibitors and nucleases (Example 5); type: in vivo; details: seeds treated 1 hour at 37° C.; cultivation 23° C.
Method: Plant: wheat Treatment: The seeds were treated with various products for 1 hour, at 37° C. […] Cultivation temperature 23° C.

[3] = test system: Fish (Trout) fish eggs contaminated with various pathogens
[4] = test system: Fungi of the Saprolegnia spp.; assay: Time to inactivation of Saprolegnia fungi (Example 15); type: cell-based; parameters: key: —: No antimicrobial activity
Method: Fungi in the amount of 10e8 cells were added to 1.0 ml of a solution of the test substance and after incubation were washed by PBS with centrifugation, resuspended in buffer, and plated on potato agar to assess survival.

[5] = test system: Wheat seeds (Triticum aestivum L.); assay: Wheat growth under stress conditions (18° C.) after seed soaking (Example 2); type: in vivo; details: seeds soaked 1 hour at 37° C., 100 μg/ml, cultivation 18° C.; for Root length (cm) / Shoot length (cm): after 5 days
Method: The cultivation temperature was 18° C., instead of the required 23° C. The assessment of the state of the plants was carried out after 5 days (table 2).

[6] = test system: Wheat seeds (Triticum aestivum L.); assay: Wheat seed germination on potato dextrose agar after soaking in products (Example 1); type: in vivo; details: seeds soaked 1 hour; nucleases 100 μg/ml at 37° C., M4 group products 0.5%
Excerpt: Wheat seeds (Triticum aestivum L., healthy, not infected) were washed with water with soap, then without soap. […] Then the seeds (8 pieces) were laid out on potato dextrose agar (https://himedialabs.com/TD/M096.pdf). Treatment with test products.

wheat [7] = assay: Regulation of wheat development after seed treatment (Example 3); type: in vivo; details: seeds treated 1 hour at 37° C.; cultivation 23° C.
Method: Plant: wheat. Treatment: The wheat seeds were treated with various nucleases or products of the M4 group for 1 hour, at 37° C. […] Cultivation temperature 23° C.

[8] = test system: Red Turkish Carnation Seeds; assay: Full cycle of plant growth after seed treatment with nucleases (Example 12); type: in vivo; details: seeds incubated with 100 μg/ml at 37° C. for 60 minutes
wheat [9] = details: in vivo
[10] = test system: patients with seborrheic dermatitis; assay: Treatment of seborrheic dermatitis (Example 23); type: in vivo, human; details: excipient alone, regimen not given; assessed within 14 days
Method: The efficacy of the drugs was assessed within 14 days, using objective and subjective measures (the prevalence of the disease, the degree of inflammation and infiltration of skin elements, the severity of itching, peeling and crusting). Dermatoscopy was done using the Heine, mini 3000 LED.

wheat [11] = assay: Wheat growth after one-time watering with products (Example 7); type: in vivo; parameters: Shoot length / Root length: unit not given here; details: one-time watering 1000 μg/ml, 200 ml for 20 grains; day 5

## C[C@H](Cn1cnc2c(N)ncnc21)OCP(=O)(O)O [Tenofovir]
Wheat [1]
  Chlorophyll total: 57.7 mg/g
  Emergence (%): 45%
  Root lenght (median): 9
  Shoot length (median): 14

## Cc1cc(C#N)cc(C)c1Oc1nc(Nc2ccc(C#N)cc2)nc(N)c1Br [Etravirine]
Wheat [1]
  Chlorophyll total: 58.7 mg/g
  Emergence (%): 55%
  Root lenght (median): 9
  Shoot length (median): 13
Wheat [2]
  Chlorophyll total: 25.0 mg/g
  Emergence (%): 75%
  Root lenght: 5.5
  Shoot length: 7.4

## CN(C)c1ccc(C(=C2C=CC(=[N+](C)C)C=C2)c2ccccc2)cc1 [Malachite green]
[3]
  Growth after plating: Lawn

## OC[C@@H](O)[C@@H](O)[C@H](O)[C@H](O)CO [Mannit (0.01%), Mannitol]
[4]; 0.005%
  Time (minutes) to reach 100% inactivation: —
[4]; 0.01%
  Time (minutes) to reach 100% inactivation: —
[4]; 0.05%
  Time (minutes) to reach 100% inactivation: —
[4]; 0.1%
  Time (minutes) to reach 100% inactivation: —
[4]; 0.5%
  Time (minutes) to reach 100% inactivation: —

## DNAse
[5]
  Emergence at day 5: 64%
  Root length (cm): 2.1 cm
  Shoot length (cm): 6.9 cm
[6]
  Germination (%) at day 5 Day 3: 75%
  Median shoot length (mm) Day 3: 24.6 mm
Wheat [7]
  Chlorophyll total: 49.1
  Emergence (%): 67%
  Leaf length (cm): 2.8 cm
  Leaf width (cm): 1.4 cm
  Number of leaves: 2 + 1
  Root length (cm): 15.2 cm
  Shoot length (cm): 5.8 cm
  Weight: 0.6 g
Wheat [2]
  Chlorophyll total: 24.7 mg/g
  Emergence (%): 73%
  Root lenght: 3.6
  Shoot length: 5.2
[8]
  Emergence (%): 95%
  Height on day 99: 7+/−1
  Root branching at 99 days (words in the root length cell): branched
  Root length at 99 days: 7+/−0.5
  The appearance of the first leaves: 5th day
  The beginning of flowering: 183 days
  The emergence of the buds: 174 days
  Weight of seeds on day 258/12 plants: 0.24 g

## Cc1ccnc2c1NC(=O)c1cccnc1N2C1CC1 [Nevirapine]
Wheat [1]
  Chlorophyll total: 52.9 mg/g
  Emergence (%): 25%
  Root lenght (median): 0
  Shoot length (median): 0

## Nc1ccn([C@@H]2CS[C@H](CO)O2)c(=O)n1 [Lamivudine]
Wheat [1]
  Chlorophyll total: 54.3 mg/g
  Emergence (%): 55%
  Root lenght (median): 9
  Shoot length (median): 13

## O=S(=O)([O-])[O-].[Zn+2] [ZnSO4 0.01%, ZnSO4]
[4]; 0.005%
  Time (minutes) to reach 100% inactivation: —
[4]; 0.01%
  Time (minutes) to reach 100% inactivation: —
[4]; 0.05%
  Time (minutes) to reach 100% inactivation: —
[4]; 0.1%
  Time (minutes) to reach 100% inactivation: —
[4]; 0.5%
  Time (minutes) to reach 100% inactivation: —*
Wheat [9]
  Root length (cm): 5.7 cm and 7.1 cm
  Seedling length (cm): 6.1 cm and 8.0 cm
[10]
  Day at which prevalence of the symptoms was reduced by 80%: >14 days

## CN(C)c1ccc2nc3ccc(=[N+](C)C)cc-3sc2c1 [Methylene blue]
[3]
  Growth after plating: Lawn

## Trypsin
Wheat [2]
  Chlorophyll total: 30.3 mg/g
  Emergence (%): 49%
  Root lenght: 5.8
  Shoot length: 2.5

## Nc1nc(NC2CC2)c2ncn([C@H]3C=C[C@@H](CO)C3)c2n1 [Abacavir]
Wheat [1]
  Chlorophyll total: 51.8 mg/g
  Emergence (%): 50%
  Root lenght (median): 11
  Shoot length (median): 13

## COc1cc2c(cc1Cc1cccc(Cl)c1F)c(=O)c(C(=O)O)cn2[C@H](CO)C(C)C [Elvitegravir]
[5]
  Emergence at day 5: 65%
  Root length (cm): 2.6 cm
  Shoot length (cm): 9.9 cm

## [H]/N=C(\N/C(=N/[H])NCCCCCCNC(=N)NC(=N)Nc1ccc(Cl)cc1)Nc1ccc(Cl)cc1 [Chlorhexidine]
Wheat [11]
  Emergence (%): 50%
  Root length: 3.6
  Shoot length: 6.9
[5]
  Emergence at day 5: 53%
  Root length (cm): 1.9 cm
  Shoot length (cm): 6.3 cm
[6]
  Germination (%) at day 5 Day 3: 54%
  Median shoot length (mm) Day 3: 14.6 mm

## Cc1nnc(C(=O)NC(C)(C)c2nc(C(=O)NCc3ccc(F)cc3)c(O)c(=O)n2C)o1 [Raltegravir]
[5]
  Emergence at day 5: 71%
  Root length (cm): 2.6 cm
  Shoot length (cm): 9.8 cm
Wheat [1]
  Chlorophyll total: 56.9 mg/g
  Emergence (%): 60%
  Root lenght (median): 8
  Shoot length (median): 12
Wheat [2]
  Chlorophyll total: 25.9 mg/g
  Emergence (%): 42%
  Root lenght: 1.9
  Shoot length: 5.7

## O=P([O-])([O-])O.[Na+].[Na+] [Na2HPO4 (0.01%), Na2HPO4]
[4]; 0.005%
  Time (minutes) to reach 100% inactivation: —
[4]; 0.01%
  Time (minutes) to reach 100% inactivation: —
[4]; 0.05%
  Time (minutes) to reach 100% inactivation: —
[4]; 0.1%
  Time (minutes) to reach 100% inactivation: —
[4]; 0.5%
  Time (minutes) to reach 100% inactivation: —
Wheat [9]
  Root length (cm): 7.7 cm and 5.9 cm
  Seedling length (cm): 8.4 cm and 6.1 cm
